Paper PMC4697807, “Novel Zn^2+ Modulated GPR39 Receptor Agonists Do Not Drive Acute Insulin Secretion in Rodents” (PLoS ONE, 2015)
Read-outs that look alike come from different tables or passages of the source.

How the values were obtained:
[1] = target: T1, GPR39 (Homo sapiens, UniProt O43194); assay: IP1 assay (HTRF), HEK293s-hGPR39 cells; assay type: cell-based; parameters: Full length human (AF034633), rat (DM091294) and mouse (BC085285) GPR39; expressed in transfected cells; host or cells: HEK293s (ATCC CRL-1573), pIRESneo3 vector, selected clones; conditions: for Efficacy at 33 μM: AZ1395 100% reference
T1 sequence (O43194 1-453): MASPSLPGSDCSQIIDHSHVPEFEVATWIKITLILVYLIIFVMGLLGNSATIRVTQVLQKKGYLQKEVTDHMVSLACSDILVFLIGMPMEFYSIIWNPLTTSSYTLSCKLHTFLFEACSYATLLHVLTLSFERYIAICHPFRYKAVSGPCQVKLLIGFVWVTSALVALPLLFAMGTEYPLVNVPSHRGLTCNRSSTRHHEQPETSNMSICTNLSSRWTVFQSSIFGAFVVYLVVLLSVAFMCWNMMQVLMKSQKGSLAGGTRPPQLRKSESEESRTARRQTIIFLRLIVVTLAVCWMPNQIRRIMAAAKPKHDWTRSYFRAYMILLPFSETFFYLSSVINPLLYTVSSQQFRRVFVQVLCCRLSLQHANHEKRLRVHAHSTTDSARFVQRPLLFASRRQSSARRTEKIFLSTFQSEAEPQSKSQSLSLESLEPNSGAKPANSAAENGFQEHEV
From the text: (§1) Full length human (AF034633), rat (DM091294) and mouse (BC085285) GPR39 (GeneArt–Life Technologies, Carlsbad, CA) were subcloned into the pIRESneo3 vector (Clontech, Mountain View, CA). The resulting expression vectors hGPR39-, rGPR39- and mGPR39-pIRESneo3 were transfected into HEK293s cells (ATCC CRL-1573) using Lipofectamine 2000 (Life Technologies). Individual clones were isolated using flow cytometry with a FACSVantage SE DIVA (Becton Dickinson, Franklin Lakes, NJ) and clones were chosen based on responses to Zn^2+ measured in a cAMP assay (see below). […] HEK293s-derived cell lines were cultured at 37°C, 10% CO2 and 95% humidity in DMEM supplemented with 10% FBS and 600 μg/ml Geneticin (Life Technologies). The mouse pancreas epithelial cell line NIT-1 (ATCC CRL-2055) with endogenous expression of GPR39 was cultured at 37°C, 5% CO2, and 95% humidity in Ham´s F12 (Life Technologies) supplemented with 10% FBS.
IP1 assays were performed using IP-One Tb kits (CisBio). IP1 production was detected by HTRF as described above. Buffers and reagents were according to manufacturers’ protocols except LiCl concentrations in stimulation buffer which were 50 mM in assays employing HEK293s-hGPR39 cells and 20 mM in assays using NIT-1 cells. For assays using HEK293s-hGPR39 cells, 12,500 cells per well were dispensed into small-volume 384-well plates (Greiner) and IP1 production was stimulated in the presence of compounds for 30 min at 37 °C in a total volume of 20 μl. For assays using NIT-1 cells, 25,000 cells per well were seeded into poly-D-lysine coated 384-well plates (Becton-Dickinson) and cultured in Ham´s F12 medium with 10% FBS. After 48 h, cells were washed with stimulation buffer and IP1 production stimulated in the presence of compounds for 45 min at 37 °C in a total volume of 60 μl.
(§2) Concentration response data were fitted with a four parameter logistic fit using Eq 1, y=A+((B−A)/1+((C/x)^D))) (1) where A is no activation, B is full activation, C is the EC50 and D is the Hill slope.

[2] = target: T2, mGPR39 (Mus musculus, UniProt Q5U431); assay: DMR label-free assay, HEK293s cells transfected with mouse GPR39; assay type: cell-based; conditions: for Efficacy at 33 μM: AZ1395 100% reference
T2 construct: Full length human (AF034633), rat (DM091294) and mouse (BC085285) GPR39; expressed in transfected cells; host or cells: HEK293s (ATCC CRL-1573), pIRESneo3 vector, selected clones
T2 sequence (Q5U431 1-456): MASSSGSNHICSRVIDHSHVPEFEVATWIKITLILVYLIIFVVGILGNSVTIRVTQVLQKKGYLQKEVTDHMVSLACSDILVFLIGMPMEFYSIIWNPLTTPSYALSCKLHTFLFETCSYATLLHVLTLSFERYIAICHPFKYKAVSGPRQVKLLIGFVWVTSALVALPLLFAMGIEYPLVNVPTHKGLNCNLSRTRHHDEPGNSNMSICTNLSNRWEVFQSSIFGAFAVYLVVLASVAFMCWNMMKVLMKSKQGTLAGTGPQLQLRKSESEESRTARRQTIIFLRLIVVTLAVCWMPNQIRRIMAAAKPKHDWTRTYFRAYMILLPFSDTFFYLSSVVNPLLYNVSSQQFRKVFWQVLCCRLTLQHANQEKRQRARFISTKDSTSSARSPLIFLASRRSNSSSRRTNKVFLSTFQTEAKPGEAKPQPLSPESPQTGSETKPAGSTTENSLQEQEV
From the text: as §1
DMR assays were performed using an Epic instrument (Corning Inc., Corning, NY). 12,000 cells per well were cultured for 24 h in 384-well fibronectin-coated Epic biosensor plates (Corning). On the day of experiment, culture medium was removed and replaced with 30 μl buffer A (HBSS, HEPES 20 mM pH7.4, 1% DMSO, 0.01% BSA) using an EL406 (Bio-Tek). Plates were incubated at 26 °C for 1 h inside the Epic to allow for temperature equilibration. A baseline was read for 2 min, and then 15 μl compounds in buffer A were added using a CyBi-Well vario (CyBio) and DMR was detected during 45 min.
as §2

[3] = absence (w/o) of Zn^2+, read-out: EC50
[4] = absence (w/o) of Zn^2+, read-out: pEC50 ± SD (converted)
[5] = presence of 5 μM Zn^2+, read-out: pEC50 ± SD (converted)
[6] = presence of 5 μM Zn^2+, read-out: EC50

Compound | pEC50 ± SD ([1]; Zn^2+ by itself) | EC50 ([1]; Zn^2+ by itself, read-out: EC50) | EC50 [2, 3] | EC50 [2, 4] | EC50 [2, 5] | EC50 [1, 4] | EC50 [1, 5] | Efficacy at 33 μM ([2]; absence (w/o) of Zn^2+) | EC50 [2, 6] | Efficacy at 33 μM ([1]; absence (w/o) of Zn^2+) | EC50 [1, 3] | EC50 [1, 6]
[Zn+2] [Zn^2+] | (4.63 ± 0.08) | 24000 nM |  |  |  |  |  |  |  |  |  | 
N#Cc1ccc(OCCn2ccnc2)c(OCCn2ccnc2)c1 [AZ1395, 3,4-bis-(2-imidazol-1-ylethoxy)-benzonitrile] |  |  | 10000 nM | 10500 nM | 166 nM | 2880 nM | 19.1 nM |  |  |  |  | 
Cc1nc2c(C(=O)O)cnn2c(O)c1Cc1ccc(Cl)cc1 [AZ4237, 6-[(4-chlorophenyl)methyl]-7-hydroxy-5-methyl-pyrazolo[1,5-a]pyrimidine-3-carboxylic acid] |  |  | > 33000 nM |  | 457 nM |  | 33.9 nM | 12% | 450 nM | 66% | > 33000 nM | 
Cc1nc(-c2nc3c(c(=O)[nH]2)CN(C(=O)c2cccc(Cl)c2F)CC3)cs1 [AZ7914, 6-(3-chloro-2-fluoro-benzoyl)-2-(2-methylthiazol-4-yl)-3,5,7,8-tetrahydropyrido-[4,3-d]pyrimidin-4-one] |  |  | > 33000 nM |  | 316 nM |  |  | 42% |  | 45% | > 33000 nM | 74 nM
